Experimental data taken from PubChem BioAssay AID624129 (Sanford-Burnham Center for Chemical Genomics, 2012).
Calls of active or inactive are those of the source. The rule behind the calls is not given here.

Key:
Assay in all cases: CXCR6 receptor antagonists, dose response, cell-based, beta-arrestin, DiscoveRx, APJ panel, uHTS hits (AID 624129)
[1] = target: Apelin receptor (Homo sapiens) (UniProt P35414); details: CXCR6 beta-arrestin (DiscoveRx) antagonist cell assay, APJ
[2] = target: Beta-galactosidase (Escherichia coli) (UniProt Q8VNN2); details: CXCR6 beta-arrestin (DiscoveRx) antagonist cell assay, b-galactosidase
Beta-galactosidase (Escherichia coli), sequence (Q8VNN2 whole entry, looked up): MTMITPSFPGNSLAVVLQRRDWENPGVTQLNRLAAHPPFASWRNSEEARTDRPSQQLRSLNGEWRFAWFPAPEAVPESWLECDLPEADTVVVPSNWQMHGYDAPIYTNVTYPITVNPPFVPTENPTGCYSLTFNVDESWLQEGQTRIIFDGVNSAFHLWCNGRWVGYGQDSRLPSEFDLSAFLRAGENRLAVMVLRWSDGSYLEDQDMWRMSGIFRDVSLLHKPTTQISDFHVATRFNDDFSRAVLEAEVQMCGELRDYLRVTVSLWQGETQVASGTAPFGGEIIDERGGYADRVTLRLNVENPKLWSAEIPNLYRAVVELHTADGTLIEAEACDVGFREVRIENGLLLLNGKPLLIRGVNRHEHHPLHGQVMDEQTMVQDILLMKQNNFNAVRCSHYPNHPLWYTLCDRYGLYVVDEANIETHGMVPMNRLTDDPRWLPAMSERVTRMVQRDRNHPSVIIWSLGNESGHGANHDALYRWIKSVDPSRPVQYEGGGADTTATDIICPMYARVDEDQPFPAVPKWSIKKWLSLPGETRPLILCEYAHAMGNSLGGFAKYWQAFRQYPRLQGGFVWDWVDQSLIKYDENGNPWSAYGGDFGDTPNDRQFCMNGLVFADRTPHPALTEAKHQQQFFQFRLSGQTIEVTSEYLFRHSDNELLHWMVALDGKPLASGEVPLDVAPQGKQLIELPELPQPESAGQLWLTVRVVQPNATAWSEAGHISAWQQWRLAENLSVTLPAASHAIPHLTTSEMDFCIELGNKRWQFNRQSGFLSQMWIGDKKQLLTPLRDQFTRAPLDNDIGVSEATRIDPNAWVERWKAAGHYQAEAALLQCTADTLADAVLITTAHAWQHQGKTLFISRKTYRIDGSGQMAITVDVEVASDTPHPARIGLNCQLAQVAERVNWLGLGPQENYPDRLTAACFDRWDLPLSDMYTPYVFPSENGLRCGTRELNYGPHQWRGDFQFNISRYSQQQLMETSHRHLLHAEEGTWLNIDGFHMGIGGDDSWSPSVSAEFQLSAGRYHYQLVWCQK

[3] = target: C-X-C chemokine receptor type 6 (Homo sapiens) (UniProt O00574); details: CXCR6 beta-arrestin (DiscoveRx) antagonist cell assay
C-X-C chemokine receptor type 6 (Homo sapiens), sequence (O00574 whole entry, looked up): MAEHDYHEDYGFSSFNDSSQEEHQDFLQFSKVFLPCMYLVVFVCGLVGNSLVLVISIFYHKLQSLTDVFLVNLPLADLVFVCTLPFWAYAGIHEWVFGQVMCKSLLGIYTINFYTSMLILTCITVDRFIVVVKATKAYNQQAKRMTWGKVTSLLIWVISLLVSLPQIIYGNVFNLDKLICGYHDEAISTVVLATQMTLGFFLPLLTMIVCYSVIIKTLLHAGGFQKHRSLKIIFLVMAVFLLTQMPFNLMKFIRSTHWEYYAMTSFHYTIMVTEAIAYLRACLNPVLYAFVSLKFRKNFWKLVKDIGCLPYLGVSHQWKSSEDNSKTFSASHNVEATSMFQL

[4] = target: C-C chemokine receptor type 6 (Homo sapiens) (UniProt P51684); details: CXCR6 beta-arrestin (DiscoveRx) antagonist cell assay
[5] = dose range 1, mean IC50 across replicates
[6] = CXCR6, dose range 1, mean IC50 across replicates
[7] = CXCR6, run 1, dose range 2, at 80 µM (top of the series)
[8] = CCR6, dose range 1, mean IC50 across replicates

Structure (SMILES)	IC50 ([1]; dose range 1)	IC50 [1, 5]	IC50 ([1]; run 2, dose range 1)	IC50 ([1]; run 3, dose range 1)	IC50 ([2]; dose range 1)	IC50 [2, 5]	IC50 ([3]; CXCR6, dose range 1)	IC50 [3, 6]	inhibition [3, 7]	IC50 ([3]; CXCR6, run 2, dose range 1)	IC50 [4, 8]	IC50 ([4]; CCR6, run 2, dose range 1)	IC50 ([4]; CCR6, dose range 1)	IC50 ([3]; CXCR6, run 1, dose range 2)	IC50 ([3]; CXCR6, run 2, dose range 2)	inhibition ([3]; CXCR6, run 1, dose range 2, at 20 µM (top of the series))
O=[N+]([O-])c1cc(Cc2ccccc2)cc(C=Nc2ccc(N3CCOCC3)cc2)c1O	15.7 µM	28.9 µM	33.6 µM	37.4 µM	inactive	64.7 µM	inactive	14.5 µM	93.2%	13.1 µM	37.4 µM	37.4 µM	–	–	–	–
C=CS(=O)(=O)c1c2cc(OC)ccc2nc2ccc(OC)cc12	17 µM	18.7 µM	18.8 µM	20.2 µM	> 80 µM (inactive)	> 80 µM	inactive	12.5 µM	117%	10.1 µM	11.7 µM	12.5 µM	10.8 µM	–	–	–
COc1cc(/C=C/c2ccc3cccc(O)c3n2)cc(OC)c1OC	4.36 µM	5.15 µM	4.59 µM	6.51 µM	> 80 µM (inactive)	> 80 µM	3.23 µM	3.7 µM	–	4.11 µM	4.03 µM	4.62 µM	3.45 µM	3.35 µM	4.09 µM	–
C/C(=N\NC(=O)Cc1ccc(Cl)cc1)c1ccccn1	3.41 µM	14 µM	4.94 µM	33.7 µM	> 80 µM (inactive)	> 80 µM	3.73 µM	3.75 µM	–	4.52 µM	3.45 µM	3.69 µM	3.22 µM	3.29 µM	3.45 µM	–
COc1ccc(C(=O)/C=C/C(=O)N(CC(=O)NC2CCCCC2)Cc2ccccc2)c(O)c1	–	> 80 µM	> 80 µM	> 80 µM	> 80 µM (inactive)	> 80 µM	> 80 µM (inactive)	> 80 µM	9.34%	> 80 µM	> 80 µM	> 80 µM	–	–	–	–
C=C1CC2(OC1=O)c1ccccc1CCc1ccccc12	–	> 80 µM	> 80 µM	> 80 µM	> 80 µM (inactive)	> 80 µM	inactive	18.7 µM	58.6%	15.8 µM	12.9 µM	10.7 µM	15.1 µM	–	–	–
Cc1ccc(C(C[N+](=O)[O-])Sc2ccc(N)cc2)cc1 (stereo not drawn)	15.5 µM	19.1 µM	22.8 µM	> 80 µM	31.8 µM	31.8 µM	inactive	21.8 µM	157%	24 µM	18.8 µM	23.3 µM	14.3 µM	–	–	–
S=C(N/N=C/c1ccccc1)N1CCOCC1	6.85 µM	7 µM	7.06 µM	7.08 µM	> 80 µM (inactive)	> 80 µM	7.03 µM	6.19 µM	–	8.46 µM	6.34 µM	7.09 µM	5.59 µM	4.47 µM	4.81 µM	–
O=[N+]([O-])/C=C/c1c(Cl)cccc1Cl	–	14.3 µM	> 80 µM	14.3 µM	> 80 µM (inactive)	> 80 µM	> 80 µM (inactive)	> 80 µM	54%	> 80 µM	> 80 µM	> 80 µM	–	–	–	–
CCOc1ccc(NC(=O)CN(C)S(=O)(=O)c2cccs2)cc1	–	> 80 µM	> 80 µM	> 80 µM	> 80 µM (inactive)	> 80 µM	> 80 µM (inactive)	> 80 µM	-28%	> 80 µM	> 80 µM	> 80 µM	–	–	–	–
O=C(Nc1nc(-c2ccccn2)cs1)c1cc(Cl)ccc1[N+](=O)[O-]	–	> 80 µM	> 80 µM	> 80 µM	> 80 µM (inactive)	> 80 µM	> 80 µM (inactive)	> 80 µM	-48.8%	> 80 µM	> 80 µM	> 80 µM	–	–	–	–
CC(=O)/C(=N\Nc1ccc(Cl)cc1Cl)Sc1cccc2cccnc12	2.83 µM	3.28 µM	3.64 µM	3.36 µM	> 80 µM (inactive)	> 80 µM	5.34 µM	4.07 µM	–	5.55 µM	3.94 µM	4.51 µM	3.37 µM	2.66 µM	2.73 µM	–
Cc1ccc(S(=O)(=O)Nc2cccc3cccnc23)cc1	16.7 µM	17.8 µM	19 µM	17.5 µM	> 80 µM (inactive)	> 80 µM	10.3 µM	8.04 µM	118%	5.75 µM	8.52 µM	9.06 µM	7.97 µM	–	–	–
Fc1ccc(Sc2nc(-c3ccccc3)nnc2C(F)(F)F)cc1	inactive	64.5 µM	57.4 µM	> 80 µM	> 80 µM (inactive)	> 80 µM	inactive	12 µM	–	27.7 µM	7.42 µM	7.37 µM	7.47 µM	5.63 µM	8.28 µM	–
CN(c1ccccc1)S(=O)(=O)c1ccc(NC(=O)c2nc(S(C)(=O)=O)ncc2Cl)cc1	7.36 µM	7.72 µM	7.88 µM	7.91 µM	> 80 µM (inactive)	> 80 µM	6.05 µM	7.41 µM	–	6.38 µM	5.69 µM	5.13 µM	6.25 µM	8.06 µM	9.16 µM	–
O=C1N[C@H](Cc2ccccc2)COC(=O)[C@H](Cc2ccc(F)cc2)CC/C=C/C[C@H]1CC(=O)N(CCO)Cc1ccccc1	–	4.7 µM	> 80 µM	4.7 µM	> 80 µM (inactive)	> 80 µM	3.29 µM	5.31 µM	–	7.32 µM	7.08 µM	8.19 µM	5.96 µM	–	–	67.7%
O=c1cc(CSc2ccc(Cl)cc2)nc(-c2ccccn2)[nH]1	3.53 µM	3.82 µM	3.74 µM	4.18 µM	> 80 µM (inactive)	> 80 µM	4.35 µM	3.68 µM	–	3.7 µM	4.41 µM	5.95 µM	2.87 µM	3.45 µM	3.2 µM	–
Cn1nc([N+](=O)[O-])nc1Sc1cccc2cccnc12	11 µM	11.9 µM	11.4 µM	13.1 µM	> 80 µM (inactive)	> 80 µM	inactive	12.5 µM	–	14.2 µM	13.7 µM	15.2 µM	12.1 µM	11.3 µM	9.55 µM	–
CCCCCCCCn1sccc1=O	9.73 µM	8.1 µM	7.99 µM	6.58 µM	> 80 µM (inactive)	> 80 µM	6.96 µM	8.16 µM	–	8.67 µM	6.83 µM	7.14 µM	6.52 µM	6.75 µM	10.2 µM	–
Cc1cc(C)c2ccc(N)nc2c1O	–	> 80 µM	> 80 µM	> 80 µM	> 80 µM (inactive)	> 80 µM	> 80 µM (inactive)	> 80 µM	-25.6%	> 80 µM	> 80 µM	> 80 µM	–	–	–	–
O=C(C#Cc1ccccc1)c1ccco1	16.1 µM	14 µM	13.1 µM	12.8 µM	> 80 µM (inactive)	> 80 µM	11.8 µM	9.68 µM	–	9.18 µM	9.89 µM	10.3 µM	9.49 µM	9.59 µM	8.16 µM	–
CN(C)c1nc(=NCc2ccco2)ss1	31.8 µM	24.9 µM	18.1 µM	> 80 µM	> 80 µM (inactive)	> 80 µM	inactive	55.9 µM	82.8%	33.6 µM	38.8 µM	34.2 µM	43.4 µM	–	–	–
